Measurements: ChEMBL document CHEMBL1287759, “Discovery of novel osthole derivatives as potential anti-breast cancer treatment” (Bioorg Med Chem Lett, 2010)

Key:
[1] = tested on: MCF7; assay: Anticancer activity against human MCF7 assessed as inhibition of cell growth by MTT assay; assay type: functional, cell-based
[2] = tested on: MDA-MB-231; assay: Anticancer activity against human MDA-MB-231 assessed as inhibition of cell growth by MTT assay; assay type: functional, cell-based
[3] = tested on: HEK293; assay: Cytotoxicity against human HEK293 assessed as inhibition of cell growth; assay type: cell-based

Row | Structure (SMILES) | IC50 [1] [µM] | IC50 [2] [µM] | Activity [3]
1 | CC(C)CCc1c(O)ccc2ccc(=O)oc12 | > 50 | > 50 | –
2 | COc1ccc2c(Oc3ccc4cc(-c5ccc(C(F)(F)F)cc5)c(=O)oc4c3CCC(C)C)cc(=O)oc2c1 | 45.9 | > 50 | –
3 | COc1ccc2cc(-c3ccc(C)cc3)c(=O)oc2c1CCC(C)C | 50.2 | > 50 | –
4 | COc1ccc2cc(-c3ccc(Cl)cc3)c(=O)oc2c1CCC(C)C | 1.27 | 5.23 | Non-toxic
5 | COc1ccc2ccc(=O)oc2c1CCC(C)C | 47 | > 50 | –
6 | COc1ccc2c(Oc3ccc4ccc(=O)oc4c3CCC(C)C)cc(=O)oc2c1 | > 50 | > 50 | –
7 | COc1ccc2cc(-c3ccc(F)cc3)c(=O)oc2c1CCC(C)C | 52.6 | > 50 | –
8 | COc1ccc2cc(-c3cccnc3)c(=O)oc2c1CCC(C)C | > 50 | > 50 | –
9 | CC(C)CCc1c(O)ccc2cc(-c3ccc(OC(F)(F)F)cc3)c(=O)oc12 | 5.7 | 7.42 | –
10 | COc1ccc2ccc(=O)oc2c1CC=C(C)C [OSTHOLE] | 25.8 | 30.2 | –
11 | CC(C)CCc1c(O)ccc2cc(-c3ccc(C(F)(F)F)cc3)c(=O)oc12 | 42.9 | > 50 | –
12 | COc1ccc2cc(-c3ccc(F)c(F)c3)c(=O)oc2c1CCC(C)C | 27.3 | 33.6 | –

The next lines start with results.

Row | IC50 [1] [µM] | IC50 [2] [µM] | Structure (SMILES) | Activity [3]
13 | 51.6 | > 50 | COc1ccc(-c2cc3ccc(OC)c(CCC(C)C)c3oc2=O)cc1OC | –
14 | 3.23 | 4.15 | COc1ccc2cc(-c3ccc(O)cc3)c(=O)oc2c1CCC(C)C | –
15 | > 50 | > 50 | CC(C)CCc1c(Oc2cc(=O)oc3cc(O)ccc23)ccc2ccc(=O)oc12 | –
16 | 0.24 | 0.31 | COc1ccc2cc(-c3ccc(OC(F)(F)F)cc3)c(=O)oc2c1CCC(C)C | Non-toxic
17 | 24.5 | 38.1 | COc1ccc2cc(-c3ccc(C(F)(F)F)cc3)c(=O)oc2c1CCC(C)C | –
